Tests used:
[1] = ABTS assay, antioxidant activity of TMDs functionalized in aqueous solution; format: biochemical; settings: TMDs functionalized with PCL-b-PEO in aqueous solution; absorbance change at 734 nm after 12 hours; FIG. 9A; read-out: IC50 (ABTS radical scavenging)
Procedure: Specifically, the antioxidant activity of four types of TMDs (MoS2, WS2, MoSe2, and WSe2) functionalized with an amphiphilic block polymer compound in an aqueous solution and Trolox (vitamin E) were measured by an ABTS (2,2′-azino-bis-(3-ethylbenzothiazoline-6-sulfonic acid)) assay.
Specifically, 7 mM 2,2′-azino-bis-(3-ethylbenzothiazoline-6-sulfonic acid) (ABTS) and 2.45 mM potassium persulfate were mixed to make the final concentration and left in a dark place at room temperature for 24 hours. Then, the mixture was diluted with distilled water so that the absorbance value at 734 nm was […]. 100 μl of the sample of each concentration was added to 100 μl of the diluted ABTS radical solution, followed by mixing. After 12 hours, the change of absorbance was measured. The same amount of Trolox as a standard material was added for measurement.

[2] = Photostability of antioxidant activity under solar simulator (ABTS assay); format: physicochemical; settings: after 3 hours, FIG. 9B

Cc1c(C)c2c(c(C)c1O)CCC(C)(C(=O)O)O2 (centres unmarked) [Trolox]
IC50 [1]: 11.7 µM
antioxidant activity remaining under light [2]: 50%

Source: patent US10695282B2, “Functionalized transition metal dichalcogenides and composition for antioxidation containing the same” (AMOREPACIFIC CORPORATION, priority 2017, dated 2020)
